Laboratory results: patent US20050148523A1, “Method of treating HIV infection in atazanavir-resistant patients using a combination of atazanavir and another protease inhibitor” (priority 2003, published 2005)

Tests used:
[1] = test system: HIV-1 in treatment naive patients; assay: Clinical study AI424-034, virological outcomes and resistance; assay type: in vivo, human; details: study 034
Source text: (§1) Study Population. Viral samples (baseline and on-treatment, where available) were obtained from patients who experienced virologic failure while enrolled in studies AI424-007/041 [12] (ATV+d4T and ddI), AI424-008/044 [13, 14] (ATV+d4T and 3TC) and AI424-034 [9] (ATV or EFV in combination with ZDV and 3TC). […] In general, virologic failure specimens were selected for further resistance evaluation only if they contained >1,000 copies/mL HIV-1 RNA and there was no indication that the specimen came from a patient at a time of transient non-adherence to study drug(s). […] For non-responders, samples from week 16 (or 24) were tested. Drug adherence was determined from pill counts of returned study medications at each scheduled visit.
(§2) ATV resistance was defined as ≧2-fold decrease in ATV susceptibility from baseline, a Fold Change (FC) of ≧2.5 (relative to the Nl4-3 reference strain), or evidence of an isoleucine (Ile) to leucine (Leu) change at amino acid residue 50 (I50L). Resistance levels for NFV and EFV were also defined as a FC reaching 2.5.

[2] = test system: clinical isolates containing a D30N substitution; assay: PhenoSense phenotypic susceptibility of clinical isolates containing D30N; assay type: cell-based, HIV-1; details: 75 D30N containing isolates, FIG. 3
Experimental: (§3) Drug Susceptibility Assays. Clinical isolates were subjected to phenotypic (PhenoSense™) and genotypic (GeneSeq™) analysis by Virologic, Inc. as described elsewhere.
Comparative Studies of I50L and D30N Containing Viruses. […] Comparative studies were performed on the 18 phenotyped viruses containing an I50L and 75 clinical isolates containing a D30N substitution without evidence of cross-resistance (FC≧2.5) to other PIs.

[3] = test system: recombinant HIV-1 viruses (NL4-3, RF, LAI) in MT-2 cells; assay: MT-2 cell susceptibility assay of recombinant viruses; assay type: cell-based; details: all three viral strains, I50L or I50L/A71V introduced by site-directed mutagenesis
Experimental: Cells and Viruses. MT-2 cells, HIV-1 RF, HIV1-LAI, and the HIV-1 NL4-3 proviral clones were obtained through the AIDS Research and Reference Reagent Program, National Institutes of Health. MT-2 cells were cultured in RPMI 1640 medium supplemented with 10% fetal bovine serum, 2 mM L-glutamine, and 10 mM Hepes buffer. HIV-1 viruses were generated by transient transfection of the proviral DNA into Human Embryonic Kidney 293 cells using Lipofectamine reagents (Gibco BRL). The viruses were harvested 72 hr post-transfection, amplified in MT-2 cells, and titered in the same cells using a virus yield assay.
Recombinant HIV-1 Variants and Chimeric NL4-3 Proviral Clones. HIV-1 strains with defined substitutions in the protease gene were generated by QuikChange® site-directed mutagenesis as recommended by the manufacturer (Stratagene). Recombinant NL4-3 and LAI proviral clones containing the wild-type and mutant protease genes from RF and clinical isolates were constructed by replacing the SseI/ApaI fragment of pNL4-3 with the appropriate SseI/ApaI protease fragments.
Recombinant viruses (generated separately from those made for PhenoSense assays) were tested in an MT-2 cell susceptibility assay at Bristol Myers Squibb. MT-2 cells were infected with recombinant viruses at a multiplicity of infection (MOI) of 0.005 50% tissue culture infective doses (TCID50)/cell followed by incubation in the presence or absence of serially diluted protease inhibitors for 4 to 7 days. Virus yields were quantified using a RT assay as previously described. The results from at least four independent experiments were used to calculate the EC50.

[4] = test system: clinical isolates containing an I50L substitution (and their baseline isolates); assay: PhenoSense phenotypic susceptibility of clinical isolates from ATV-treated patients who developed I50L; assay type: cell-based, HIV-1
Source text: as §1, §3

[5] = test system: HIV-1 in treatment naive patients; assay: Clinical study AI424-007/041, virological outcomes and resistance; assay type: in vivo, human; details: study 007/041
Source text: as §1, §2

[6] = test system: HIV-1 in treatment naive patients; assay: Clinical study AI424-008/044, virological outcomes and resistance; assay type: in vivo, human; details: study 008/044
Source text: as §1, §2

| Structure (SMILES) | Virologic Failures (%) [1] [%] | Virologic Failures, number [1] | median FC [2] | change in susceptibility [3] | Susceptibility, Fold Change in EC50 relative to reference strain ([4]; Subject 076, Week 80) [Fold Change] | Susceptibility, Fold Change in EC50 relative to reference strain ([4]; Subject 076, Week 92) [Fold Change] | Susceptibility, Fold Change in EC50 relative to reference strain ([4]; Subject 100, Week 1.7) [Fold Change] | Susceptibility, Fold Change in EC50 relative to reference strain ([4]; Subject 169, Week 0.1) [Fold Change] | Susceptibility, Fold Change in EC50 relative to reference strain ([4]; Subject 169, Week 90) [Fold Change] | Susceptibility, Fold Change in EC50 relative to reference strain ([4]; Subject 169, Week 102) [Fold Change] | Subceptibility, Fold Change in EC50 relative to reference strain ([4]; Subject 169, Week 114) [Fold Change] | Susceptibility, Fold Change in EC50 relative to reference strain ([4]; Subject 362, Week 0.1) [Fold Change] | Susceptibility, Fold Change in EC50 relative to reference strain ([4]; Subject 362, Week 108) [Fold Change] | percentage of baseline isolates exhibiting a FC≦0.4 ([4]; baseline isolates) [%] | median increase in susceptibility from baseline ([4]; on emergence of I50L, n=4 to 15) [fold] | percentage of I50L isolates with susceptibility (FC) 0.4-fold or lower ([4]; relative to the reference strain) [%] | Virologic Failures (%) [5] [%] | Virologic Failures, number [5] | Virologic Failures (%) [6] [%] | Virologic Failures, number [6] |
| --- | --- | --- | --- | --- | --- | --- | --- | --- | --- | --- | --- | --- | --- | --- | --- | --- | --- | --- | --- | --- |
| O=C1Nc2ccc(Cl)cc2[C@@](C#CC2CC2)(C(F)(F)F)O1 [EFV, efavirenz] | 17 | 69 | – | – | – | – | – | – | – | – | – | – | – | – | – | – | – | – | – | – |
| Cc1c(O)cccc1C(=O)N[C@@H](CSc1ccccc1)[C@H](O)CN1C[C@H]2CCCC[C@H]2C[C@H]1C(=O)NC(C)(C)C [NFV, nelfinavir] | – | – | resistance | enhanced susceptibility | 0.4 | 0.6 | 2.1 | 1.0 | 0.5 | 0.5 | 0.7 | 2.3 | 1.1 | 0 | 1.6 | 33 | 23 | 18 | 30 | 27 |
